The source made the active and inactive calls. Unless noted, no cut-off for these calls is given here.
What was measured:
[1] = target: T1, Lysine-specific demethylase 4C (Homo sapiens, UniProt Q9H3R0); assay: GASC-1 (JMJD2C) histone demethylase inhibitors, dose response, biochemical, DELFIA europium, cherry-picked samples (AID 488835); type: functional
T1 sequence (Q9H3R0 whole entry): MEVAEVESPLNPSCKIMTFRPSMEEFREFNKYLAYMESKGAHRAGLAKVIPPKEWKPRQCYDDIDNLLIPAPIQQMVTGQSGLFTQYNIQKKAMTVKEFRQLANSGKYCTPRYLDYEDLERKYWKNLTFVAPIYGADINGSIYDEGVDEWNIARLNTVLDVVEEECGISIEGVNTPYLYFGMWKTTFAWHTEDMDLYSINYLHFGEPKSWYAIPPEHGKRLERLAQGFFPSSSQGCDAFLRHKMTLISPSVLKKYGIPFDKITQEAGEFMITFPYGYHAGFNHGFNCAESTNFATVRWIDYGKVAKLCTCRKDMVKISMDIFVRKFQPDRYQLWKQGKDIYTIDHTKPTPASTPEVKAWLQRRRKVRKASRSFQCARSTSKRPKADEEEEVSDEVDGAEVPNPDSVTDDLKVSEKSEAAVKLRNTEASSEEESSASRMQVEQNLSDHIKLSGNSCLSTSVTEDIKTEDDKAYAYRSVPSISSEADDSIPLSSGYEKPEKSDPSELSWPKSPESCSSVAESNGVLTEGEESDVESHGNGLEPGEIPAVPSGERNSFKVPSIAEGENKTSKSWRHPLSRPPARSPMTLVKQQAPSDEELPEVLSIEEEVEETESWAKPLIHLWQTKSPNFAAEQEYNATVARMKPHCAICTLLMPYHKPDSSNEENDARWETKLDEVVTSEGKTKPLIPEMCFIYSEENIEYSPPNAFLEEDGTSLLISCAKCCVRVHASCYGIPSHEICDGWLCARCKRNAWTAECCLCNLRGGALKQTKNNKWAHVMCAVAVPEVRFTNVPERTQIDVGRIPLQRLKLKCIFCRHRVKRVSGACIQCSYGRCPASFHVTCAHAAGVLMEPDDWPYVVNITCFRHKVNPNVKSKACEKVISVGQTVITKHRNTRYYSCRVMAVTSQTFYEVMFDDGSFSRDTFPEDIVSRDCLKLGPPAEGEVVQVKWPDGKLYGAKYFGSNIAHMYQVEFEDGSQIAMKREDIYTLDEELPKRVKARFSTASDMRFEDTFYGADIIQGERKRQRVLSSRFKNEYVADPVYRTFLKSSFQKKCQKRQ

fMet-Leu-Phe receptor = target: T2, fMet-Leu-Phe receptor (Homo sapiens, UniProt P21462); assay: FPR ligands, dose response (AID 519); type: functional
T2 sequence (P21462 whole entry): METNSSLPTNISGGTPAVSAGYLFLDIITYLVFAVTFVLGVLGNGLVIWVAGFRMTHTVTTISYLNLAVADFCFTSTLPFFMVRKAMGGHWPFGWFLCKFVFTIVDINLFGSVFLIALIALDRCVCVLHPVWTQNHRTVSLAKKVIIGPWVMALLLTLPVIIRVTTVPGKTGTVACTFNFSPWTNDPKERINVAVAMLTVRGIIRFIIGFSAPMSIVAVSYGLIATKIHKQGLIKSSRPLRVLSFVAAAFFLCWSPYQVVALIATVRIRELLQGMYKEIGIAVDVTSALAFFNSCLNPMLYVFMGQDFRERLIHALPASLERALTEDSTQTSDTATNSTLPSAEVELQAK

[2] = target: Lysine-specific demethylase 4A (Homo sapiens, UniProt O75164); assay: JMJD2A histone demethylase inhibitors, dose response, selectivity assay for GASC-1 inhibitor project, biochemical, DELFIA europium, cherry-picked samples (AID 488840)
[3] = target: T3, Delta-type opioid receptor (Homo sapiens, UniProt P41143); assay: SAR Analysis of Antagonists of the DOR Receptor using an Image-Based Assay - Set 2. [Related pubchem assays (depositor defined):AID1777, AID1785, AID1786, AID1966, AID2133, AID2136, AID2284, AID2285, AID2357]; type: functional
[4] = target: T4, Kappa-type opioid receptor (Homo sapiens, UniProt P41145); assay: SAR analysis of small molecule agonists of the kappa opioid receptor via a luminescent beta-arrestin assay - Set 2. [Related pubchem assays (depositor defined):AID1777, AID1785, AID1786, AID1966, AID2133, AID2136, AID2284, AID449737]; type: functional
[5] = target: T4, Kappa-type opioid receptor; assay: SAR analysis of Agonists of the Kappa Opioid Receptor (KOR) using an Image-Based Assay - Set 2. [Related pubchem assays (depositor defined):AID1777, AID1786, AID1966, AID2133, AID2136, AID2284, AID2285, AID2359]; type: functional
[6] = target: T4, Kappa-type opioid receptor; assay: SAR analysis of Antagonists of the Kappa Opioid Receptor (KOR) using an Image-Based Assay - Set 2. [Related pubchem assays (depositor defined):AID1777, AID1785, AID1786, AID1966, AID2133, AID2136, AID2284, AID2285, AID2348]; type: functional
[7] = target: T3, Delta-type opioid receptor; assay: SAR Analysis of Agonists of the DOR Receptor using an Image-Based Assay - Set 2. [Related pubchem assays (depositor defined):AID1777, AID1785, AID1786, AID1966, AID2133, AID2136, AID2284, AID2285, AID2370]; type: functional
Mu-type opioid receptor [8] = target: T5, Mu-type opioid receptor (Homo sapiens, UniProt P35372); assay: SAR Analysis of Antagonists of the MOR Receptor using an Image-Based Assay - Set 2. [Related pubchem assays (depositor defined):AID1777, AID1785, AID1786, AID1966, AID2133, AID2136, AID2284, AID2285, AID2420]; type: functional
[9] = target: T4, Kappa-type opioid receptor; assay: KOR antagonist analogs, beta-arrestin recruitment, SAR follow-up, cell-based, luminescence, set 2 (AID 2495); type: functional
Mu-type opioid receptor [10] = target: T5, Mu-type opioid receptor; assay: SAR Analysis of Agonists of the MOR Receptor using an Image-Based Assay - Set 2. [Related pubchem assays (depositor defined):AID1777, AID1785, AID1786, AID1966, AID2133, AID2136, AID2284, AID2285, AID2352]; type: functional
[11] = target: T4, Kappa-type opioid receptor; assay: SAR analysis of small molecule agonists of the kappa opioid receptor via a luminescent beta-arrestin assay - Set 3. [Related pubchem assays (depositor defined):AID1777, AID1785, AID1786, AID1966, AID2133, AID2136, AID2284, AID2500]; type: functional
Mu-type opioid receptor [12] = target: T5, Mu-type opioid receptor; assay: SAR Analysis of Agonists of the MOR Receptor using an Image-Based Assay - Set 3. [Related pubchem assays (depositor defined):AID1777, AID1785, AID1786, AID1966, AID2133, AID2136, AID2284, AID2285, AID2352]; type: functional
[13] = target: T4, Kappa-type opioid receptor; assay: KOR agonist analogs, arrestin-GFP redistribution, SAR follow-up, imaging, image-based, set 3 (AID 488833); type: functional
[14] = target: T3, Delta-type opioid receptor; assay: SAR Analysis of Agonists of the DOR Receptor using an Image-Based Assay - Set 3. [Related pubchem assays (depositor defined):AID1777, AID1786]; type: functional
[15] = target: T6, G-protein coupled receptor 35 (Homo sapiens, UniProt Q9HC97); assay: GPR35 antagonists blocking zaprinast-driven arrestin recruitment, primary screen, imaging, U2OS, beta-arrestin-GFP, zaprinast agonist (AID 2058); type: functional;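 note: antagonist potency meaning inhibition of agonist-induced arrestin redistribution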
[16] = target: G-protein coupled receptor 55 (Homo sapiens, UniProt Q9Y2T6); assay: GPR55 antagonists, SAR follow-up, counter-screen for GPR35 antagonist project, imaging, image-based (AID 2397); type: functional
[17] = target: T6, G-protein coupled receptor 35; assay: SAR Analysis for the identification of Selective Antagonists of ERK1/2 Activity in GPR35-Overexpressing U2OS Cells. [Related pubchem assays: 2079, 2058 ]; type: functional, cell-based

T5 sequence (P35372 whole entry): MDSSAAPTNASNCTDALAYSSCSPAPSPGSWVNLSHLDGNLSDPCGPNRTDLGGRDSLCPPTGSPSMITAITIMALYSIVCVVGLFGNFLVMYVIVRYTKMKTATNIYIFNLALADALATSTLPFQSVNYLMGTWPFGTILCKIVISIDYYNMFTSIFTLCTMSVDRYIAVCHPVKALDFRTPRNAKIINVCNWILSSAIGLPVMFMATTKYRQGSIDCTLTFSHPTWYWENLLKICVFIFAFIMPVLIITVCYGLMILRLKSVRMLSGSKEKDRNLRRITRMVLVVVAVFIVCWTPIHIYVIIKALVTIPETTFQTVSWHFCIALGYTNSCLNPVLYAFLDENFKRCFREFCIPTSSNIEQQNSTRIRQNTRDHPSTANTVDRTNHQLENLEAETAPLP
T4 sequence (P41145 whole entry): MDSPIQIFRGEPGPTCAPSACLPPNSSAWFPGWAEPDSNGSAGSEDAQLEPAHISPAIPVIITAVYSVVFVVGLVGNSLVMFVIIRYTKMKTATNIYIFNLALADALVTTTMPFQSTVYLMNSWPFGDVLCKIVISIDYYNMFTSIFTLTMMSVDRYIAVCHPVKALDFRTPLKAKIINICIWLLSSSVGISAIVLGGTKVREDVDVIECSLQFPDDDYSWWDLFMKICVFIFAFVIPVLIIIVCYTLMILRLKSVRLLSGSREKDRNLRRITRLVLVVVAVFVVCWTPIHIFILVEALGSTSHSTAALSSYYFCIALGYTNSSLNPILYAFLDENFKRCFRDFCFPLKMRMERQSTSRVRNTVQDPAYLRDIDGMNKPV
T3 sequence (P41143 whole entry): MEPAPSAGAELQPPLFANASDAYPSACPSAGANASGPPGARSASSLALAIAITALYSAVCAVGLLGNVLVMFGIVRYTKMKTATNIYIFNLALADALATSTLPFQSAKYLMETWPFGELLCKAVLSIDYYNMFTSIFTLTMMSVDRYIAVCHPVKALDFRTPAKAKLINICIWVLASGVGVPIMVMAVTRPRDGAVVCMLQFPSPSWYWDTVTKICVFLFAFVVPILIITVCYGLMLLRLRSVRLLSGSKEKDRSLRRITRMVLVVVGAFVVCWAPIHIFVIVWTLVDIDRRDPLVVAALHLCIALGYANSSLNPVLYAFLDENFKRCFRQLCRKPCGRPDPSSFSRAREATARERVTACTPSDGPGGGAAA
T6 sequence (Q9HC97 whole entry): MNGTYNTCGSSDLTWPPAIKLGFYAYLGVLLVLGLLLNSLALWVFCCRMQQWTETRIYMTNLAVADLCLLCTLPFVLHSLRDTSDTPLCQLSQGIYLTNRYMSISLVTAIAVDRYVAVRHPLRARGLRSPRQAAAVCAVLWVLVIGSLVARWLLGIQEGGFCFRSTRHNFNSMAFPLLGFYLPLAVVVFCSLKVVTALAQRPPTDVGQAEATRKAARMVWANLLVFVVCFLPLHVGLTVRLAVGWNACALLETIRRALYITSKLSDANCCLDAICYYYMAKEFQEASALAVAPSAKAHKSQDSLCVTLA
Chain of G-protein coupled receptor 55 (Q9Y2T6 whole entry): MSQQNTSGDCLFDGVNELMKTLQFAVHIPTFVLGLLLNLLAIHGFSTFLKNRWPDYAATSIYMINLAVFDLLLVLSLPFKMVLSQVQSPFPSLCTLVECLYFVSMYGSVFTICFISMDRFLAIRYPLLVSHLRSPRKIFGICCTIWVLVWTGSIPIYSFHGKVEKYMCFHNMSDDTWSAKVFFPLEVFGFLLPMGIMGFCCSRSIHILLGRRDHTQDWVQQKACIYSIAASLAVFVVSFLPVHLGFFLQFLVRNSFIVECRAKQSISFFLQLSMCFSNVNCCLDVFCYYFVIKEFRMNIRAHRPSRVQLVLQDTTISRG
Chain of Lysine-specific demethylase 4A (O75164 whole entry): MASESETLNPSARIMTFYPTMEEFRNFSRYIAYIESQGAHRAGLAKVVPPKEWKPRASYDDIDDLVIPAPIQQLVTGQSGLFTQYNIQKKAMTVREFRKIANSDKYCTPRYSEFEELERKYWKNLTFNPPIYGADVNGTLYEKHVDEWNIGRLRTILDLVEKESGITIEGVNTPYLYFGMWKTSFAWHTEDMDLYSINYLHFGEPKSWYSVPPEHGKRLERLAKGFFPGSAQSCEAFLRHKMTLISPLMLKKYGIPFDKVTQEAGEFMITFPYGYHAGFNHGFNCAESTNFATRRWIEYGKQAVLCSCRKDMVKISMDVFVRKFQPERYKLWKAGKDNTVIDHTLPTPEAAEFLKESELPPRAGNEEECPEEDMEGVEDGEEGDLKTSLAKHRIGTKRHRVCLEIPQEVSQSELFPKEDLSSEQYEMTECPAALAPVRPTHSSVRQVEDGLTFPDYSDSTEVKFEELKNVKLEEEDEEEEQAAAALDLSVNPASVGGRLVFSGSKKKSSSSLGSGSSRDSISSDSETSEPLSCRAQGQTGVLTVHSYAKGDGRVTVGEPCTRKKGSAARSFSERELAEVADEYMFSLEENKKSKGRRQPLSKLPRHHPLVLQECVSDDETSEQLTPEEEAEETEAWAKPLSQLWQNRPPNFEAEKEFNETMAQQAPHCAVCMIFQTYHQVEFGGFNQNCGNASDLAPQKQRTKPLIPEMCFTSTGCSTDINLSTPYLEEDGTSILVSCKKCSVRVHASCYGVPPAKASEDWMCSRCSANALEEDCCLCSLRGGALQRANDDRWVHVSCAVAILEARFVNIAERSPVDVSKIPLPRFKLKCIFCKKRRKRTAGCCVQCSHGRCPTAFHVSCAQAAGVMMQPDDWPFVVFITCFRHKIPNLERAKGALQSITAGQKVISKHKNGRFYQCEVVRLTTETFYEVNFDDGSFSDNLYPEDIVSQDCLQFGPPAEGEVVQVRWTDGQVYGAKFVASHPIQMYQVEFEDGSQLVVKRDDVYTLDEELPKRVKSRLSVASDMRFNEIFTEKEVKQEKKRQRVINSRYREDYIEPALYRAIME

`O=c1cc(N2CCc3ccccc32)[nH]c(=O)n1Cc1ccc(F)cc1` was tested, and the AC50 [1] was 1.09 µM (active), the Ki (fMet-Leu-Phe receptor) was > 66.7 µM (inactive) and the AC50 [2] was 6.55 µM (active).
`CCc1ccc(S(=O)(=O)NCc2ccc(C(=O)NCCc3ccccc3)cc2)cc1` was tested, and the IC50 [3] was > 32 µM (inactive), the EC50 [4] was > 20 µM (inactive) and the EC50 [5] was > 32 µM (inactive). For the same molecule, the IC50 [6] was > 32 µM (inactive), the EC50 [7] was > 32 µM (inactive) and the IC50 (Mu-type opioid receptor [8]) was > 32 µM (inactive). For the same molecule, the IC50 [9] was > 20 µM (inactive) and the EC50 (Mu-type opioid receptor [10]) was > 32 µM (inactive).
`Fc1cccc(F)c1CSc1nnc(-c2ccccn2)n1Cc1cccs1` was tested, and the EC50 [11] was 18 µM (inactive), the EC50 (Mu-type opioid receptor [12]) was > 32 µM (inactive) and the EC50 [13] was 20.9 µM (inactive). For the same molecule, the EC50 [14] was > 32 µM (inactive).
`Cc1nc(N2CCC(C)CC2)c2c(C)c(C(=O)Nc3ccc4c(c3)OCCO4)sc2n1` was tested, and the IC50 [15] was 1.2 µM (active), the IC50 [16] was > 32 µM (inactive) and the IC50 [17] was > 32 µM (not active).

Reference: ChEMBL document CHEMBL1201862, “PubChem BioAssay data set” (2004)
